Measured values taken from patent US4943646A, “Gallium complexes and solvent extraction of gallium” (Monsanto Company, priority 1987, dated 1990).
Where two headings read alike, the source gives them in different places. One block for each compound: values may come before it.

Key:
[1] = Extent of hydrolysis of hydroxamic acids after extraction, washing and stripping, by spectrophotographic analysis; details: for % DECOMPOSITION: additional, less careful determinations (untitled table); for % Decomposition (hydrolysis of hydroxamic acid): after extraction-wash-strip cycle, Table 4
[2] = Percentage of extractant pulled into the aqueous phase by Fe (III) in 0.25M H2SO4; assay type: physicochemical; details: Fe (III) in 0.25M H2SO4 (pH=0.3), 22 °C
Protocol: Tests were conducted on a series of hydroxamic acids to determine the percentages of the extractants pulled into an aqueous phase from an organic phase, by Fe (III) in 0.25M H2 SO4 (pH=0.3) at 22° C. The conditions represent a severe test of aqueous solubility since the pH favors FeA^++ formation, where A=hydroxamate anion. […] With regard to hydroxamic acids with n less than 6, a compound with n=4, i.e. N-methyl hexanohydroxamic acid, was approximately 35% pulled into the aqueous phase.

[3] = below 0.01M nitric acid; cited from earlier work
[4] = Organic solubility and viscosity of organic solutions (Table 13); assay type: physicochemical
Description: The organic solubilities and viscosity characteristics of N-alkylalkanohydroxamic acids, in comparison with N-H hydroxamic acids, are reported in Table 13.

[5] = Hydroxamic acid in the aqueous phase (Example 24); assay type: physicochemical; details: for HA in aqueous phase: Table 19
Protocol: A solution was prepared containing 30% by weight N-methyl naphthenohydroxamic acid in kerosene solvent containing 5% by volume isodecanol. A gallium sulfate solution was prepared by mixing 1 ml of an aqueous gallium sulfate solution, 90.8 grams/liter concentration, with 25 ml deionized water. The thus prepared solution was blended with 25 ml of the N-methyl naphtheno hydroxamic acid solution and 800 microliters of 10N NaOH was added from a microburette. […] The gallium had been extracted into the organic solution. The aqueous phase was replaced with an equal volume of 0.1M sodium acetate, which gave a pH 8.21. A 60 microliter amount of 10N NaOH was added, which gave a 9.3 pH after the phases were blended for 20 minutes. […] Additional increments of l0N NaOH were added and gallium concentrations were determined after blending, with results as reported in Table 19. All blending operations were conducted at about 60° C.
The results in Table 19 indicate that the stripping into the aqueous phase is almost negligible at pH below about 11, and in fact the 15 ppm values reported are at about the limit of the analytical method used. […] It appears that efficient extraction can be effected under alkaline conditions ranging from pH 7 to about 11. In the initial result at pH 11.91, a large amount of the hydroxamic acid was stripped into the aqueous phase. However, after an additional amount of isodecanol was added, the phases were easily separated and hydroxamic acid was not found in the aqueous phase. Thus, for pH over about 11.5 it is greatly advantageous to have a coordination solvent such as a long-chain alkanol or other water-insoluble alcohol present in substantial quantity, such as around 20% or more by volume of the organic solvents present. The coordinating solvent modifier assists in phase separation and in avoiding undue loss of the hydroxamic acid to the aqueous stripping solution. Of course stripping the gallium can be accomplished despite significant loss of the hydroxamic acid, and the hydroxamic acid can be recycled with the stripping solution or recovered therefrom.

[6] = Analysis of hydroxamic acid remaining after acid stripping (Example 11); assay type: physicochemical
Description: The organic solutions remaining after the acid stripping were washed with water and the petroleum ether was stripped under vacuum. […] Analysis of the unsubstituted naphthenohydroxamic acid indicated 91% decomposition. This example also indicates the usefulness of diluting the organic phase with a volatile, water immiscible organic solvent to provide more complete stripping of metal. After stripping the extractant is regenerated by distilling off the volatile solvent. Both organic liquids are recycled.

[7] = Stirred-beaker extraction, 2% H2SO4 wash and 30% H2SO4 strip of gallium from phosphate treater dust leachate (Examples 1-7); details: 5 minutes extraction

% DECOMPOSITION [1]: 38.6%
Compound: CCCCCCCCCCc1ccc(C(=O)N(C)O)cc1 [N-methyl 4-decylbenzo HA]

extractant pulled into the aqueous phase [2]: approximately 35%
Compound: CCCCCC(=O)N(C)O [N-methyl hexanohydroxamic acid]

HA in aqueous phase ([5]; b715 pH 10.57, b719 after adding 10 ml isodecanol): negative
HA in aqueous phase ([5]; pH 11.91): 0.65 M
test for hydroxamic acid in aqueous phase ([5]; pH 8.26): negative
extractant concentration after stripping (original 1M) ([6]; possibly mechanical losses and some dilution): 0.8744 M
VISCOSITY ORGANIC SOL. [4]: Medium
% Decomposition (hydrolysis of hydroxamic acid) (extraction-wash-strip cycle): +0.14%
% DECOMPOSITION (used extractant solutions): 4.99%
Compound: N-methylnaphthenohydroxamic acid

% DECOMPOSITION [1]: 4.6%
% Decomposition (hydrolysis of hydroxamic acid) [1]: +0.74%
Compound: N-n-propylnaphthenohydroxamic acid

Ga remaining in aqueous phase [7]: 3.6 ppm
decomposition ([6]; after acid stripping): 91%
VISCOSITY ORGANIC SOL. ([4]; Table 13): High
solubility in KEROSENE ([4]; Table 13): Low
solubility in KEROSENE WITH ISODECANOL ([4]; Table 13): Low
% DECOMPOSITION [1]: 42.5%
% Decomposition (hydrolysis of hydroxamic acid) [1]: 45%
% Decomposition (hydrolysis of hydroxamic acid) ([1]; listed as N--H naphthenohydroxamic acid): 45.0%
% Decomposition (hydrolysis of hydroxamic acid) ([1]; listed as unsubstituted hydroxamic acid): 45%
Compound: naphthenohydroxamic acid [reference compound]

Ga remaining in aqueous phase [7]: 3 ppm
Compound: neodecanohydroxamic acid

Second part, the compound before the results:

Compound: CCCCCCCC(=O)NO [caprylhydroxamic acid]
hydrolysis [3]: hydrolysis occurs rather slowly

Compound: N-ethylnaphthenohydroxamic acid
% DECOMPOSITION [1]: 1.0%
% Decomposition (hydrolysis of hydroxamic acid) [1]: -0.53%

Compound: N-methyl isostearohydroxamic acid
VISCOSITY ORGANIC SOL. ([4]; Table 13): V. Low
solubility in KEROSENE ([4]; Table 13): V. Soluble (V. Soluble = dissolves in molar quantities (>1) (V = very))
solubility in KEROSENE WITH ISODECANOL ([4]; Table 13): V. Soluble (V. Soluble = dissolves in molar quantities (>1) (V = very))

Compound: N-methylneodecanohydroxamic acid
% DECOMPOSITION [1]: 0.13%

Compound: neotridecanohydroxamic acid
VISCOSITY ORGANIC SOL. ([4]; Table 13): High
solubility in KEROSENE ([4]; Table 13): Soluble
solubility in KEROSENE WITH ISODECANOL ([4]; Table 13): Soluble
